The record followed here is patent publication US20080085889A1, “Amidomethyl-Substituted 1-(Carboxyalkyl) Cyclopentyl-Carbonylamino-Benzazepine-N-Acetic Acid Compounds, Process and Intermediate Products for Their Preparation and Pharmaceutical Compositions Containing Them” (SOLVAY PHARMACEUTICALS GmbH, priority 2003, published 2008).

Data set [1] concerns maximal SAP response to Big-ET. The experiment in a line: In vivo i.v. potency (ID50) to inhibit maximal SAP response to Big-ET in anesthetized rats. As to conditions: Rattus norvegicus, iv, dose at which the pressor effect of Big-ET was suppressed by 50%. Set-up: species or system Rats (Sprague-Dawley). How it is done:
Rats (Sprague-Dawley, CRLD=Charles River) were anaesthetised with 1 ml/kg Rompun/Ketavet 1:1. A pressure transducer (Statham) was inserted into the carotid artery to measure blood pressure.
For intravenous testing, one jugular vein was cannulated for administering the substance, and the other for administering Big-ET-1. […] Five minutes later, 0.5 nmol/kg Big-ET-1 was infused over a period of one minute. SAP, DAP, and heart rate were measured before administration of the substance, then before administration of Big-ET, and subsequently every five minutes after Big-ET administration over a period of 30 minutes using the pressure transducer in known manner. The maximum Big-ET-induced increase in blood pressure was calculated from the measured values as the difference between the value measured at the moment of maximum development of the Big-ET action (typically after 5 min) and the value measured before Big-ET infusion. The dose at which the pressor effect of Big-ET was suppressed by 50% (ID50) was estimated from the inhibitory effects observed over the range of dosages tested (n>5 rats for each dose).
The intravenous potency of the test compounds of Formula I (given as ID50 values) to inhibit the maximal SAP response to Big ET in anesthetized rats is set forth in the following Table 3b: […]

Data set [2] has as its target T1, His6-tagged hSEP ectodomain (Homo sapiens, UniProt Q495T6).
T1 construct: His6-tagged hSEP ectodomain; His6; purchased Innogenetics, Ghent, Belgium
T1 sequence (Q495T6 49-779 limits assumed): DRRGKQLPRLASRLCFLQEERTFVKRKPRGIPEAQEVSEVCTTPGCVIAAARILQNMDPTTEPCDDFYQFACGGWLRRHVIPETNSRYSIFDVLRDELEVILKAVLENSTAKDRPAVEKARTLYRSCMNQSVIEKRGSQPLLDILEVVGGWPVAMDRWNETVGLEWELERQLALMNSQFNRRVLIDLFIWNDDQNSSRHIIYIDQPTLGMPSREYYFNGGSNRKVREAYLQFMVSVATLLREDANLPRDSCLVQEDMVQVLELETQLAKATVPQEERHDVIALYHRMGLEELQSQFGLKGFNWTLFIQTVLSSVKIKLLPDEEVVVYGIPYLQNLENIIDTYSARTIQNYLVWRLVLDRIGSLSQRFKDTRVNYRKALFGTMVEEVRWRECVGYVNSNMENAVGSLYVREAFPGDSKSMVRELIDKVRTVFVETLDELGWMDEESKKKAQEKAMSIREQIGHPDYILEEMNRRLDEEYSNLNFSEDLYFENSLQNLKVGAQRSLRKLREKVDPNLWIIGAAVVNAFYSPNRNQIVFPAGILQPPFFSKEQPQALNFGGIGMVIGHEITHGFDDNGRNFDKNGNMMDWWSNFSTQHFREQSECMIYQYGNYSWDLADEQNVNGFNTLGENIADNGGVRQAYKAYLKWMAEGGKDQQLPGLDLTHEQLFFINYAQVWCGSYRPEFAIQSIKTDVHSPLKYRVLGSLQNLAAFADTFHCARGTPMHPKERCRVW
The experiment in a line: In vitro investigation of the hSEP-inhibitory action (fluorescence-quenched Big-ET-1 analogue, HPLC). Format: biochemical. The procedure, abridged: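 Performed as for the NEP assay, with HPLC analysis and 10 nM phosphoramidon as the standard inhibitor. IC50 is the compound concentration blocking 50% of hSEP enzymatic activity.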

Data set [3] can be described thus: Plasma protein binding, equilibrium dialysis, human plasma. As to conditions: human plasma (10% for routine testing), 37° C., pH 7.4, 10% plasma (100% for low binders), read-out: % bound (human plasma) (converted). In kind it is in vitro ADME. How it is done:
Plasma protein binding of the test substances of Formula I was measured using a validated equilibrium dialysis method. The dialysis cells consisted of two halves separated by a semi-permeable membrane slightly tensioned in between. […] Before being used, the membranes were re-hydrated by soaking in water followed by the dialysis buffer. Plasma (10% for routine testing, and 100% for compounds found to have a low protein binding) was heated to 37° C. and adjusted to pH 7.4 before use. 5 μM test compound solutions (final dimethylsulfoxide concentration 0.5%) were prepared in isotonic phosphate buffer containing rat or human plasma. The plasma-containing solution was on one side of the membrane, and the plasma-free on the other. Incubations were performed overnight (10% plasma assay), or for 2 hours (100% plasma assay) in triplicate. The cells were mounted in a drive unit that rotated the cells and ensured a uniform equilibrium was obtained. The equilibrium was temperature controlled by the drive unit being immersed in a water bath at 37° C. At the end of the equilibration time, the cells were emptied. The solutions for each batch of compounds were combined into two groups (plasma-free and plasma-containing) then cassette analysed by LC-MS/MS using two sets of calibration standards for plasma-free (7 points) and plasma-containing solutions (6 points). The percentage of protein bound compound was calculated as follows: [formula] PC=sample concentration in protein containing side; PF=sample concentration in protein free side;
In general terms: In equilibrium dialysis only unbound substance equilibrates across the membrane.

The term ED50 denotes the dose that gives a 50% effect, or the effect in half of the subjects. Low values mean an effect at a small dose, high ones a need for a large dose. As usually defined, the IC50 is the point on the concentration scale where inhibition reaches its midpoint. The low end stands for higher potency, the high end for lower potency. In data set [1], `CN(C)CCCN(C)C(=O)CC(CC1(C(=O)NC2CCc3ccccc3N(CC(=O)O)C2=O)CCCC1)C(=O)O` (centres unmarked) [Example 64, 2-[(1-{[1-(carboxymethyl)-2-oxo-2,3,4,5-tetrahydro-1H-1-benzazepin-3-yl]carbamoyl}cyclopentyl)methyl]-4-{[3-(dimethylamino)propyl](methyl)amino}-4-oxobutanoic acid] gave an ED50 of 0.2 µmol/kg. This molecule gave an IC50 in data set [2] of 5 nM. The fraction unbound at 5 μM in data set [3] is roughly 1.
In data set [2], `CC(C)NC(=O)CC(CC1(C(=O)N[C@H]2CCc3ccccc3N(CC(=O)O)C2=O)CCCC1)C(=O)O` (stereo in doubt) [Example 3, (2″rel1″)-2-{[(3S)-1-({[1-(carboxymethyl)-2-oxo-2,3,4,5-tetrahydro-1H-1-benzazepin-3-yl]amino}-carbonyl)cyclopentyl]methyl}-4-(isopropylamino)-4-oxobutyric acid] returned an IC50 of 7.8 nM. For the same molecule, in data set [3], the fraction unbound at 5 μM is 0.58.
`CCN(CCCCN)C(=O)CC(CC1(C(=O)NC2CCc3ccccc3N(CC(=O)O)C2=O)CCCC1)C(=O)O` [Example 81, (2″rel1″)-4-[(4-aminobutyl)(ethyl)amino]-2-{[1-({[(3S)-1-(carboxymethyl)-2-oxo-2,3,4,5-tetrahydro-1H-1-benzazepin-3-yl]amino}carbonyl)cyclopentyl]methyl}-4-oxobutanoic acid]: the ED50 in data set [1] amounted to 0.05 µmol/kg. The molecule further displayed an IC50 in data set [2] of 2 nM. Further, the fraction unbound at 5 μM in data set [3] was 0.34.
